Holding throughout (assay type): in vitro ADME
Data set [1] in a line: Metabolic stability in pooled human liver microsomes. Conditions: pooled human liver microsomes 0.5 mg/mL, 1 μM compound, 37° C. As for the experimental part: Pooled human liver microsomes in PBS at a concentration of 0.5 mg/mL was incubated with or without 1 mM NADPH for 70 min at 37° C. Test compound was added after 10 minutes to a final concentration of 1 μM. Samples were withdrawn at 0, 5, 15 and 60 minutes and added to test tubes containing acetonitrile, to stop the reaction, and with terfenadine, used as internal standard. After centrifugation at 10 000×g for 5 minutes the supernatant was diluted 1:1 with 1% formic acid. Samples were separated on a reverse phase column and detected by triple quadrupole MSMS (Agilant model 6540). The concentration of the parent compound at the different time points was measured with an external standard curve using terfenadine as internal standard and the initial metabolic rate in the presence or absence of NADPH calculated.
For orientation: Liver microsomes are vesicles of endoplasmic reticulum, rich in cytochrome P450 enzymes.

For data set [2], the target named is T1, CYP2C19 (Homo sapiens, UniProt P33261).
T1 construct: using isoform-specific substrates incubated with human liver microsomes; tissue Eurofins protocol ITEMG232; host or cells: human liver microsomes
The data set is described as follows: CYP inhibition in human liver microsomes. Conditions: probe omeprazole, substrate omeprazole, read-out: CYP2C19 Inh %. As for the experimental part: (§1) The following substrates were used; CYP1 Å phenacetin, […] bupropion, CYP2C8 paclitaxel and amodiaquine, CYP2C9 diclofenac, CYP2C19 omeprazole, CYP2D6 dextromethorphan, CYP3 Å midazolam and testosterone.
(§2) At the end of the incubation, the formation of metabolite was monitored by HPLC-MS/MS as the peak area response.

For data set [3], the target named is T2, CYP2C8 (Homo sapiens, UniProt P10632).
T2 construct: using isoform-specific substrates incubated with human liver microsomes; tissue Eurofins protocol ITEMG232; host or cells: human liver microsomes
T2 sequence (P10632 1-490): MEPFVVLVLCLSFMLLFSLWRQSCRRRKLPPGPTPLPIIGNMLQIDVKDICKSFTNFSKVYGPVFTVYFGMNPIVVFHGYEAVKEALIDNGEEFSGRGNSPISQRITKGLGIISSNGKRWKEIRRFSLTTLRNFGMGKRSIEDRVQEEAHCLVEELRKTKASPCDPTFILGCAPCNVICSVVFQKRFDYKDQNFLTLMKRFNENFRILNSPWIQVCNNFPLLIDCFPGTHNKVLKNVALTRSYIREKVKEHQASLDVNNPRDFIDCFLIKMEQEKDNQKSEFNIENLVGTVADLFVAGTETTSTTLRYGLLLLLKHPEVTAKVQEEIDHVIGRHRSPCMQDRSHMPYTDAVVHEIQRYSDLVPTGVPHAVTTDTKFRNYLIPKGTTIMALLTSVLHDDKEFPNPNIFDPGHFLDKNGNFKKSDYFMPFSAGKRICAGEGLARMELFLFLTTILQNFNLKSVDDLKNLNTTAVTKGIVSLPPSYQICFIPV
Put plainly: CYP inhibition in human liver microsomes. Conditions: probe paclitaxel and amodiaquine, substrates paclitaxel and amodiaquine, read-out: CYP2C8 Inh %. The procedure:
as §1, §2

Data set [4] addresses T3, CYP2D6 (Homo sapiens, UniProt P10635).
T3 construct: tissue Eurofins protocol ITEMG232; host or cells: human liver microsomes
The data set is described as follows: CYP inhibition in human liver microsomes. Conditions: probe dextromethorphan, substrate dextromethorphan, read-out: CYP2D6 Inh %. The procedure:
as §1, §2

In data set [5] the target is T4, CYP2B6 (Homo sapiens, UniProt P20813).
T4 construct: using isoform-specific substrates incubated with human liver microsomes; tissue Eurofins protocol ITEMG232; host or cells: human liver microsomes
T4 sequence (P20813 1-491): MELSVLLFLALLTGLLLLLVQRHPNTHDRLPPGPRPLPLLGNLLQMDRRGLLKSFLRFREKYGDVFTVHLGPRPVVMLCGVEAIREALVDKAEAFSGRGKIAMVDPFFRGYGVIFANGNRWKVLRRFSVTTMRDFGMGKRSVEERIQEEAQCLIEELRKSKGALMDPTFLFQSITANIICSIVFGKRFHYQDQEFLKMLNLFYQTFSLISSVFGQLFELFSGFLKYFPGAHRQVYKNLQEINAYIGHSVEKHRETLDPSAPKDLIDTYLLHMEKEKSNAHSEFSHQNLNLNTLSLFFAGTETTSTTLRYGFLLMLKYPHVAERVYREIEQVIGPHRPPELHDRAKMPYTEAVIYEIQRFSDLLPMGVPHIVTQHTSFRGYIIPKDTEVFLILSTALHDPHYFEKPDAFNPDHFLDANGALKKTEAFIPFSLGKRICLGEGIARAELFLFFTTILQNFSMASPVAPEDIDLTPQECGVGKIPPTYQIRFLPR
The data set is described as follows: CYP inhibition in human liver microsomes. Conditions: probe bupropion, substrate bupropion, read-out: CYP2B6 Inh %. The procedure: as §1, §2

Data set [6] addresses T5, CYP3A4 (Homo sapiens, UniProt P08684). The data set is described as follows: CYP inhibition in human liver microsomes (midazolam). Conditions: probe midazolam, substrate midazolam, read-out: CYP3A4 midazolam Inh %. Further details: using isoform-specific substrates incubated with human liver microsomes; tissue Eurofins protocol ITEMG232; host or cells: human liver microsomes. The procedure:
as §1, §2

Data set [7] addresses T6, CYP2C9 (Homo sapiens, UniProt P11712). Put plainly: CYP inhibition in human liver microsomes. Further details: using isoform-specific substrates incubated with human liver microsomes; tissue Eurofins protocol ITEMG232; host or cells: human liver microsomes. Conditions: probe diclofenac, substrate diclofenac, read-out: CYP2C9 Inh %. The procedure: as §1, §2
Data set [8] has as its system CYP3A4&5. Put plainly: CYP inhibition in human liver microsomes (testosterone). Conditions: probe testosterone, substrate testosterone, read-out: CYP3A4&5 testosterone Inh %. As for the experimental part:
as §1, §2

For data set [9], the target named is T7, CYP1A2 (Homo sapiens, UniProt P05177).
T7 construct: using isoform-specific substrates incubated with human liver microsomes; tissue Eurofins protocol ITEMG232; host or cells: human liver microsomes
Put plainly: in vitro. Conditions: human liver microsomes, substrate phenacetin, read-out: CYP1A2 Inh %. The procedure: as §1, §2

The target of data set [10] is T5, CYP3A4. Put plainly: CYP inhibition found during development of C21.
The target of data set [11] is T6, CYP2C9. The data set is described as follows: CYP inhibition found during development of C21.
The nature of data set [12]: Metabolic hydrolysis found during development of C21.
The mark [13] stands for this setting: with 1 mM NADPH, read-out: T1/2, + NaDPH.
The mark [14] stands for this setting: without NADPH, read-out: T1/2, no NaDPH.

Each structure is given as a SMILES string. Read-outs that look alike come from different tables or passages of the source.

T5 sequence (P08684 whole entry, canonical isoform): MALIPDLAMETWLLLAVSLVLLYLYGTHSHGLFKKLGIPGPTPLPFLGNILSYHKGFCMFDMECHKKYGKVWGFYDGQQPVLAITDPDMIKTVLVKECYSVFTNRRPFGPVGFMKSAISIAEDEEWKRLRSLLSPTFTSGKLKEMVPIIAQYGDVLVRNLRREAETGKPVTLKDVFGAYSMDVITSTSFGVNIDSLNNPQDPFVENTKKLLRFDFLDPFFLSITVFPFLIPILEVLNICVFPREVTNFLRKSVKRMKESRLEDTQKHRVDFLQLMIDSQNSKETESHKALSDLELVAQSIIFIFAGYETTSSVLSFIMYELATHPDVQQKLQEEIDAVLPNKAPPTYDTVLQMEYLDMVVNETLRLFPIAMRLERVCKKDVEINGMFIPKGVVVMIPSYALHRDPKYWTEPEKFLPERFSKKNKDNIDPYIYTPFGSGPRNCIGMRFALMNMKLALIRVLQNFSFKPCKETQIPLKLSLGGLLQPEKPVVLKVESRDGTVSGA
T6 sequence (P11712 whole entry, canonical isoform): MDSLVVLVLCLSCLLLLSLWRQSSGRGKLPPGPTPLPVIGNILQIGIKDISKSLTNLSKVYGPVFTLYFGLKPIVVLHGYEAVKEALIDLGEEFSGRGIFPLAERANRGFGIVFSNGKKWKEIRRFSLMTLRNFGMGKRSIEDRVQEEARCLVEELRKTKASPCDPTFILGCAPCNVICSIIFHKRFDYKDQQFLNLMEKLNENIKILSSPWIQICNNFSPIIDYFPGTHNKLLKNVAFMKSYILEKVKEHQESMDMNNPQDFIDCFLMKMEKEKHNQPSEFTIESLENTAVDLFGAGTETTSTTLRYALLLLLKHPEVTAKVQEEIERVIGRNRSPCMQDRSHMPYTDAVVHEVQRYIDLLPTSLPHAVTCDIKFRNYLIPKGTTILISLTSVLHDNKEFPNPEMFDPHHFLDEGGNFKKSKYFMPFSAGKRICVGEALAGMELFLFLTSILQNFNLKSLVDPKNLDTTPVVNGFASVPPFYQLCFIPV
T1 sequence (P33261 whole entry, canonical isoform): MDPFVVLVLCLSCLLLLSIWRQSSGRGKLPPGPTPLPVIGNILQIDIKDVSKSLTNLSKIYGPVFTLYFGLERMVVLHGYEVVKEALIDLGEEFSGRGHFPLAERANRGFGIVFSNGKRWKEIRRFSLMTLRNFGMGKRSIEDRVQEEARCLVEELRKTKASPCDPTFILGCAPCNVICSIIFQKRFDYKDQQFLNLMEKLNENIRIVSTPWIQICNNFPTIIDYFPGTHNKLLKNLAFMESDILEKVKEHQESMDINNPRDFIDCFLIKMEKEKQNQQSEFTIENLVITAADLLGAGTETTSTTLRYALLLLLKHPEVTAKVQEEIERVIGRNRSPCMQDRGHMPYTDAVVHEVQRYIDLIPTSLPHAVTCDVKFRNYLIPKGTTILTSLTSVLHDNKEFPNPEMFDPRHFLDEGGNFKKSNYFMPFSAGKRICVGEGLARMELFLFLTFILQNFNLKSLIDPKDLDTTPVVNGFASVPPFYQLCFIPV
T3 sequence (P10635 whole entry): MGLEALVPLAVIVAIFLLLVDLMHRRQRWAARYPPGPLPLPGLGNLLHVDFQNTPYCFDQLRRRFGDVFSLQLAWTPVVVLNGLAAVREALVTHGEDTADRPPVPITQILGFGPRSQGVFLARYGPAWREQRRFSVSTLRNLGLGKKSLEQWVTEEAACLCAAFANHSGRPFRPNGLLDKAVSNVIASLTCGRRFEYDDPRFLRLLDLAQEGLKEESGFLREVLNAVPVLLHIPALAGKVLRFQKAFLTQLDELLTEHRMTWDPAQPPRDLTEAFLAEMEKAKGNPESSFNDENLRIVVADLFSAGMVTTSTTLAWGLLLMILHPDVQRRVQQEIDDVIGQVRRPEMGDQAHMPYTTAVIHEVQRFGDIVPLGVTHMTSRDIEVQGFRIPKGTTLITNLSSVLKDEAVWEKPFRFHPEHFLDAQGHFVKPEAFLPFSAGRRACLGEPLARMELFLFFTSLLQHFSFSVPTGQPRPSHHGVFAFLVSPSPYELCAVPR
T7 sequence (P05177 whole entry, canonical isoform): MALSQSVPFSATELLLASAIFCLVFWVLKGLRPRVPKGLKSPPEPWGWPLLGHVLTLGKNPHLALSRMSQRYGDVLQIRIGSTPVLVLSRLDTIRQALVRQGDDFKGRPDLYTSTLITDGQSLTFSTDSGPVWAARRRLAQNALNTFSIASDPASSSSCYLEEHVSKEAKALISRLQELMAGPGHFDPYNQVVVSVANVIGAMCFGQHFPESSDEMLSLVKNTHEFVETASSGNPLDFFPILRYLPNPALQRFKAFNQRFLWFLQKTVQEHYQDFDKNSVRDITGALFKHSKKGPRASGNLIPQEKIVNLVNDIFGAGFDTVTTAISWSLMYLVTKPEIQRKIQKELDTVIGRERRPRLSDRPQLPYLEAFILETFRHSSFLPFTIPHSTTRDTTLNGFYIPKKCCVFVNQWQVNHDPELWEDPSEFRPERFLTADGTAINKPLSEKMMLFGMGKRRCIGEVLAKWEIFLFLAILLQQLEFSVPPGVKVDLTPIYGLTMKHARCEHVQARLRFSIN

`Cc1cc(-c2cc(CC(C)C)sc2S(=O)(=O)Nc2ccccn2)ccc1Cn1ccnc1C` [Example 3, 5-Isobutyl-3-[3-methyl-4-[(2-methylimidazol-1-yl)methyl]phenyl]-N-(2-pyridyl)thiophene-2-sulfonamide]: the half-life at 1 μM in data set [1] (setting [13]) is 0.883 h; in [1] (setting [14]) it was more than 1 h.

Regarding `Cc1nccn1Cc1ccc(-c2cc(CC(C)C)sc2S(=O)(=O)Nc2ncccn2)cc1Cl` [Example 1, 3-[3-Chloro-4-[(2-methylimidazol-1-yl)methyl]phenyl]-5-isobutyl-N-pyrimidin-2-yl-thiophene-2-sulfonamide], the inhibition at 10 µM in data set [2] came out at 72.7%; in data set [3] it was 33.9%; in data set [4] it was 28.3%; in [5], 22.4%; in data set [6], 40.1%; in [7], 49.4%. Moreover, the inhibition at 10 µM came out at 40.1% in data set [8] and 12.3% in [9]. The half-life at 1 μM in data set [1] (setting [13]) and in data set [1] (setting [14]) was more than 1 h each time.

Consider `CCCCOC(=O)NS(=O)(=O)c1sc(CC(C)C)cc1-c1ccc(Cn2ccnc2)cc1` [Example C21, N-butyloxycarbonyl-3-(4-imidazol-1-ylmethylphenyl)-5-isobutylthiophene-2-sulfon-amide], for which, in [10], the “inhibition of CYP 3A4 (in words)” value was “potent inhibitor”. Also, the inhibition at 10 µM in [8] stood at 94%. In addition, the “inhibition of CYP 2C9 (in words)” value in data set [11] is recorded as “potent inhibitor”. Further, the “metabolic hydrolysis (in words)” value in data set [12] was “rapidly hydrolysed to an inactive sulfonamide metabolite”.

`Cc1nccn1Cc1ccc(-c2cc(CC(C)C)sc2S(=O)(=O)Nc2ccccn2)cc1Cl` [Example 2, 3-[3-Chloro-4-[(2-methylimidazol-1-yl)methyl]phenyl]-5-isobutyl-N-(2-pyridyl)thiophene-2-sulfonamide]: the values for the half-life at 1 μM in data set [1] (setting [13]) and in data set [1] (setting [14]) were 1 h and more than 1 h, respectively.
